Assays:
[1] = tested on: K-562 human chronic myelogenous leukemia (CML) cell line; test: Tumor growth inhibition, K-562 xenograft; type: in vivo; conditions: K-562 in mice, oral 8 mg/kg, (Mon, Wed, Fri)x4; p <0.05 to <0.001
Description: (§1) To evaluate in vivo efficacy and effect of 4,4,4-Trifluoro-N-[(1S)-2-[[(7S)-5-(2-hydroxyethyl)-6-oxo-7H-pyrido[2,3-d][3]benzazepin-7-yl]amino]-1-methyl-2-oxo-ethyl]butanamide on inhibition of Notch processing pharmacodynamics (PD), several cell lines- and patient-derived xenograft models are used. A2780 is a human ovarian cell line (Sigma-Aldrich, No. 93112519); SW480 is a human colorectal cell line (ATCC No. CCL-228); HCT 116 is a human colorectal cell line (ATCC No. CCL-247); U-87 MG is a human glioblastoma cell line (ATCC No. HTB-14); A375 is a human malignant melanoma cell line (ATCC No. CRL-1619); K-562 is a human chronic myelogenous leukemia (CML) cell line characterized by the presence of a fusion transcript comprised of the Bcr and Abl1 genes (ATCC No. CCL-243); Jurkat; HEL 92.1.7 is a human erythroleukemia cell line (ATCC No. TIB-180). […] Tumor growth and body weight are monitored over time to evaluate efficacy and signs of toxicity. Bidimensional measurements of tumors are performed twice a week and tumor volumes are calculated based on the following formula: (Tumor Volume)=[(L)×(W2)×(Π/6)] where L is mid-axis length and W is mid-axis width. […] The log volume data are analyzed with a two-way repeated measures analysis of variance by time and treatment using the MIXED™ procedures in SAS™ software (version 8.2). […]

[2] = tested on: human triple negative invasive ductal breast carcinoma (EL1997); test: Tumor growth inhibition, patient-derived tumor model EL1997; type: in vivo; conditions: EL1997 in mice, oral 10 mg/kg (Q2Dx7), 11-days OFF, 8 mg/kg (Mon, Wed, Fri)x4; p <0.0001
Description: as §1

[3] = Toxicokinetics in rats; type: in vivo, rat
Description: A study is carried out to assess the toxicity and toxicokinetics of 4,4,4-Trifluoro-N-[(1S)-2-[[(7S)-5-(2-hydroxyethyl)-6-oxo-7H-pyrido[2,3-d][3]benzazepin-7-yl]amino]-1-methyl-2-oxo-ethyl]butanamide in rats given oral gavage doses of 0, 1.3, or 4.3 mg/kg once daily for 2 weeks or 1, 3, 10, or 30 mg/kg 3 times/week for 2 weeks.
4,4,4-Trifluoro-N-[(1S)-2-[[(7S)-5-(2-hydroxyethyl)-6-oxo-7H-pyrido[2,3-d][3]benzazepin-7-yl]amino]-1-methyl-2-oxo-ethyl]butanamide is combined with a vehicle comprising 1% carboxymethylcellulose sodium, 0.25% polysorbate 80 and 0.05% Dow Corning® Antifoam 1510-US in purified water. Sprague Dawley CD®/IGS rats (crl:CD(SD)), International Genetic Standardization (IGS) 7-9 week old rats, 3/sex/group, Charles River Laboratories, Inc, are used for the study. Animals are fed ad libitum with 12 hours light, 12 hours dark cycle maintained in ventilated stainless-steel racks at an ambient temperature of 22.2+/[…] and relative humidity of 30% to 70%. The test compound is dosed according to Table 1. The test compound is administered by oral gavage in a volume of 10 mL/kg body weight. The duration of the study for all groups is 14 days.
Additional Groups of animals 3/sex/group (Groups 08, 09, and 12) and 3 females/group (Groups 10, 11, and 13) are dosed for toxicokinetic evaluations. For Groups 08, 09, and 10, blood is collected from each animal at the following times relative to dosing on Days 3 and 14: 0 (predose; Day 14 only), 0.5, 1, 2, 4, 8, 24, 30, and 48 hours postdose. For Group 11, blood is collected from each animal at the following times relative to dosing on Day 3: 0.5, 1, 2, 4, 8, 24, 30, and 48 hours postdose. For Group 12, blood is collected from each animal at the following times relative to dosing on Days 1 and 14: 0 (predose; Day 14 only), 0.5, 1, 2, 4, 8, and 24 hours postdose. For Group 13 blood is collected from each animal at the following times relative to dosing on Day 1: 0.5, 1, 2, 4, 8, and 24 hours postdose. Groups 08 through 13 are used for toxicokinetic evaluations. […]

C[C@H](NC(=O)CCC(F)(F)F)C(=O)N[C@@H]1C(=O)N(CCO)c2ncccc2-c2ccccc21 [Compound 1, 4,4,4-trifluoro-N-[(1S)-2-[[(7S)-5-(2-hydroxyethyl)-6-oxo-7H-pyrido[2,3-d][3]benzazepin-7-yl]amino]-1-methyl-2-oxo-ethyl]butanamide]
% TGI [1]: 54.96 (<0.05 to %
% TGI [2]: 80.28 (<0.0001) %
24 hour drug concentrations ([3]; rat, daily and TIW regimens): minimal
Accumulation and differences between sexes in exposure ([3]; rats, oral gavage): No accumulation or major differences between sexes
Exposure (AUC0-24 hr) versus dose ([3]; rats, oral gavage, following both single and multiple doses): increased in a roughly linear and dose-proportional manner

From patent publication US20190209581A1, “DOSAGE REGIMEN FOR TREATMENT OF SOLID TUMORS” (Eli Lilly and Company, priority 2016, published 2019)
